Assay results: US5360796A, “Imidazo[1,2-a]pyridinylalkyl phosphonic acid compounds for treatment of neurotoxic injury” (G. D. Searle & Co., priority 1991, dated 1994)

Key:
[1] = tested on: CA1 region of the hippocampus; assay: Forebrain Ischemia Assay; assay type: in vivo, Mongolian gerbil; conditions: for # of Neurons/Field: 7 days after 4-5 min carotid occlusion
Procedure: This assay was used to determine the extent of protection afforded by compound of the invention to neural brain cells subjected to ischemic conditions. Male Mongolian gerbils, 50-70 gm, were used as subjects. Compound No. 7 (30 mg/kg) was injected j.p. 30 minutes prior to carotid occlusion into 6 gerbils […]. In preparation for surgical procedures, the animals were lightly anesthetized with methoxyflurane and placed upside down on a heated pad with their snout within a nosecone. A 70:30 mixture of nitrous oxide and oxygen containing 0.5% halothane was circulated through the nosecone to provide continuous anesthesia throughout the surgical procedure. A midline incision was made in the neck and the carotid arteries were exposed. A length of suture thread was placed under each carotid. The thread was then tightened around each carotid and pressure applied to the thread to insure flow was occluded. Flow was occluded for 4-5 minutes and then the thread was removed. The carotids were visually inspected to confirm that reflow had occurred. The wound was then closed with autoclips and the gerbils allowed to recover. Following surgery, the gerbils were kept alive for 7 days. They were anesthetized with 100 mg/kg sodium pentobarbital and perfused transcardially with saline (with heparin) followed by buffered formalin. The brain was removed, trimmed and prepared for histological processing. Sections (10 microns) were stained with thionin. […] Quantification of the resulting lesion is made by counting the pyramidal cell somata in a 0.5 mm length of CAl of the hippocampus on the section corresponding to P 1.7 mm in the gerbil brain atlas.
Normal cell count in this region of the hippocampus in unoperated gerbils is 146±2. The effects of compound of Ex. #7 were assessed by comparing the number of neural cells found in the hippocampus of subjects treated with Ex. #7 compound with the cell number found in the appropriate control groups. […]

[2] = tested on: tonic hindlimb extensor seizures; assay: Anticonvulsant Assay (electroconvulsive shock); assay type: in vivo, mouse (CD-1); conditions: for Protected from ECS (% of Mice): 30 min prior to ECS
Text: The screens were then slowly inverted. […] The current was held constant at 15 mA. […] There were 10 mice in each treatment group.

[3] = Motor impairment, inverted screen test
Procedure: Naive male CD-1 mice (20-30 grams body weight) from Charles River Laboratories, Portage Mich. served as subjects. The mice had ad libitum access to food and water prior to testing and were maintained on a 12 hour light/12 hour dark schedule with testing during the light portion of the cycle. The mice were tested for motor impairment by use of the inverted screen test approximately 5 minutes prior to anticonvulsant testing. […] Mice were placed on 13×13 cm pieces of #4 wire mesh screen which were mounted horizontally. The screens were then slowly inverted. […] PG-Tween is a 1:1 mixture of propylene glycol and Tween 80. […] There were 10 mice in each treatment group.

## O=C(O)c1cn2c(CP(=O)(O)O)cccc2n1 [Example 7, 5-(phosphonomethyl)imidazo[1,2-a]pyridine-2-carboxylic acid]
[1]; 300 mg/kg, control 32.8, P < 0.05
  # of Neurons/Field: 53.0
[1]; 500 mg/kg, control 17.0, p < 0.0001
  # of Neurons/Field: 112.6
[1]; vs control, Mann-Whitney U test
  cell loss: significantly reduced
[2]; 10 mg/kg s.c.
  Protected from ECS (% of Mice): 20%
[2]; 32 mg/kg s.c.
  Protected from ECS (% of Mice): 60%
[2]; 56 mg/kg s.c.
  Protected from ECS (% of Mice): 90%
[2]; 100 mg/kg s.c.
  Protected from ECS (% of Mice): 100%
[2]; Mus musculus, sc, 0.5 h, s.c., doses in mg/kg, 95% CI 12.3-32.9, read-out: Protected from ECS ED50
  ED50: 21.8 mg/kg
[2]; s.c.
  protection against tonic hindlimb extensor seizures (in words): protected against tonic hindlimb extensor seizures in a dose-dependent fashion
[3]; 10 mg/kg s.c.
  Exhibiting Motor Impairments (% of Mice): 30%
[3]; 32 mg/kg s.c.
  Exhibiting Motor Impairments (% of Mice): 50%
[3]; 56 mg/kg s.c.
  Exhibiting Motor Impairments (% of Mice): 70%
[3]; 100 mg/kg s.c.
  Exhibiting Motor Impairments (% of Mice): 90%
[3]; mouse, inverted screen test, sc
  TD50 at 0.5 h: 24.6 mg/kg
[3]; s.c.
  impaired motor function (in words): impaired motor function in a similar dose range
